*1 amine or outer side, *2 acyl side, *3 side chain or, on linkers, in order; H or OH if unused. Where a SMILES comes first, the peptide text is derived from it. Bridges are numbered along the chain shown (N, C = ends). [ ]: non-standard residue; d: D form. The star is where a group is joined. X22 = O=C([C@H](Cc1ccc(C(F)(F)F)cc1)N(CC1CCCC1)[*:1])[*:2]; X39 = CC(C)CCN([C@@H](Cc1ccc(C(F)(F)F)cc1)C(=O)[*:2])[*:1]; hPhe(3-Cl-4-CF3) = N[C@@H](CCc1ccc(C(F)(F)F)c(Cl)c1)C(=O)O; X37 = O=C([C@H](Cc1ccc(C(F)(F)F)cc1)N(CC1CCC1)[*:1])[*:2]; X40 = CC(C)CN([C@@H](Cc1ccc(C(F)(F)F)cc1)C(=O)[*:2])[*:1]; X23 = C=CCCN([C@@H](Cc1ccc(C(F)(F)F)cc1)C(=O)[*:2])[*:1]; X27 = O=C([C@H](Cc1ccc(C(F)(F)F)cc1)N(CC1CC1)[*:1])[*:2]; X31 = COCCCN([C@@H](Cc1ccc(C(F)(F)F)cc1)C(=O)[*:2])[*:1]; X17 = CCCCN([C@@H](Cc1ccc(C(F)(F)F)cc1)C(=O)[*:2])[*:1]; X38 = C#CCN([C@@H](Cc1ccc(C(F)(F)F)cc1)C(=O)[*:2])[*:1]; NMeGly(cPent) = CN[C@H](C(=O)O)C1CCCC1; NMeD = CN[C@@H](CC(=O)O)C(=O)O; NMeL = CN[C@@H](CC(C)C)C(=O)O; Morpholide = C1CN(*)CCO1; NMeA = CN[C@@H](C)C(=O)O; Ac5c = NC1(C(=O)O)CCCC1; Aze = O=C(O)[C@@H]1CCN1; Sar = CNCC(=O)O
Legend:
[1] = target: GDP-bound KRAS wild-type protein (Homo sapiens, UniProt P01116); assay: Binding to KRAS by surface plasmon resonance (SPR), Single Cycle Kinetics; conditions: SPR Single Cycle Kinetics, GDP-bound KRAS wild-type protein, 1:1 binding model; read-out: KRAS KD
[2] = target: GDP-bound NRAS wild-type protein (Homo sapiens, UniProt P01111); assay: Binding to NRAS by surface plasmon resonance (SPR), Single Cycle Kinetics; conditions: SPR, GDP-bound NRAS wild-type protein vs GDP-bound KRAS wild-type protein
[3] = target: GDP-bound HRAS wild-type protein (Homo sapiens, UniProt P01112); assay: Binding to HRAS by surface plasmon resonance (SPR), Single Cycle Kinetics; conditions: SPR, GDP-bound HRAS wild-type protein vs GDP-bound KRAS wild-type protein
Chain of GDP-bound HRAS wild-type protein (P01112 whole entry): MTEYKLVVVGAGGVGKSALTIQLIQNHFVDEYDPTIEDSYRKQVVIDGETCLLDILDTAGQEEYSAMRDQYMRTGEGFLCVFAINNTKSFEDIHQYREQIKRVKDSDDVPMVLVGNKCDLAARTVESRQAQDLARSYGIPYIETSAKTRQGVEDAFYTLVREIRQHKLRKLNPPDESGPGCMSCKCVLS

Chain of GDP-bound KRAS wild-type protein (P01116 whole entry): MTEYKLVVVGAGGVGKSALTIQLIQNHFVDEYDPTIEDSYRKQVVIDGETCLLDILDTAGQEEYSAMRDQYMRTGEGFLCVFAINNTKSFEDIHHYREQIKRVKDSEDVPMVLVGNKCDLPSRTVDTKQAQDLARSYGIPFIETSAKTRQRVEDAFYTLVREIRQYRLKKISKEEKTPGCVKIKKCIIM
Chain of GDP-bound NRAS wild-type protein (P01111 whole entry): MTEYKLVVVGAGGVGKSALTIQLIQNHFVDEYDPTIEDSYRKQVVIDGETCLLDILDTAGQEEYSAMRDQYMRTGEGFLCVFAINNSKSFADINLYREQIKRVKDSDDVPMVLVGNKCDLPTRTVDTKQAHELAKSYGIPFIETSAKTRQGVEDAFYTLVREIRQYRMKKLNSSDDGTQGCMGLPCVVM

Structure (SMILES)	Kd [1]	NRAS/KRAS (ratio of KD value for NRAS to KD value for KRAS) [2]	HRAS/KRAS (ratio of KD value for HRAS to KD value for KRAS) [3]
CC[C@H](C)[C@@H]1NC(=O)[C@H](CC(C)C)N(C)C(=O)C[C@@H](C(=O)N2CCOCC2)N(C)C(=O)[C@H](C2CCCC2)N(C)C(=O)C2(CCCC2)NC(=O)[C@@H]2CCCN2C(=O)[C@H](CCc2ccc(C(F)(F)F)c(Cl)c2)NC(=O)CN(C)C(=O)[C@H](Cc2ccc(C(F)(F)F)cc2)N(CCCOC)C(=O)[C@@H]2CCN2C(=O)[C@H](C)N(C)C1=O [PP0119] ([NMeL]I[NMeA][Aze][X31][Sar][hPhe(3-Cl-4-CF3)]P[Ac5c][NMeGly(cPent)][NMeD]-Morpholide; lactam N-11)	0.1 nM	C (A compound having a KD ratio of 0.1 or more and less than 3 is denoted as C)	C (A compound having a KD ratio of 0.1 or more and less than 3 is denoted as C)
CCCCN1C(=O)CN(C)C(=O)CN(C)C(=O)[C@H]([C@@H](C)CC)NC(=O)[C@H](CC(C)C)N(C)C(=O)C[C@@H](C(=O)N2CCOCC2)N(C)C(=O)[C@H](C2CCCC2)N(C)C(=O)C2(CCCC2)NC(=O)[C@@H]2CCCN2C(=O)[C@H](CCc2ccc(C(F)(F)F)c(Cl)c2)NC(=O)CN(C)C(=O)[C@@H]1Cc1ccc(C(F)(F)F)cc1 [PP0120] ([NMeL]I[Sar][Sar][X17][Sar][hPhe(3-Cl-4-CF3)]P[Ac5c][NMeGly(cPent)][NMeD]-Morpholide; lactam N-11)	0.19 nM	B (a compound having 3 or more and less than 10 is denoted as B)	C (A compound having a KD ratio of 0.1 or more and less than 3 is denoted as C)
CC[C@H](C)[C@@H]1NC(=O)[C@H](CC(C)C)N(C)C(=O)C[C@@H](C(=O)N2CCOCC2)N(C)C(=O)[C@H](C2CCCC2)N(C)C(=O)C2(CCCC2)NC(=O)[C@@H]2CCCN2C(=O)[C@H](CCc2ccc(C(F)(F)F)c(Cl)c2)NC(=O)CN(C)C(=O)[C@H](Cc2ccc(C(F)(F)F)cc2)N(CC2CCC2)C(=O)CN(C)C(=O)CN(C)C1=O [PP0123] ([NMeL]I[Sar][Sar][X37][Sar][hPhe(3-Cl-4-CF3)]P[Ac5c][NMeGly(cPent)][NMeD]-Morpholide; lactam N-11)	0.83 nM	B (a compound having 3 or more and less than 10 is denoted as B)	C (A compound having a KD ratio of 0.1 or more and less than 3 is denoted as C)
CC[C@H](C)[C@@H]1NC(=O)[C@H](CC(C)C)N(C)C(=O)C[C@@H](C(=O)N2CCOCC2)N(C)C(=O)[C@H](C2CCCC2)N(C)C(=O)C2(CCCC2)NC(=O)[C@@H]2CCCN2C(=O)[C@H](CCc2ccc(C(F)(F)F)c(Cl)c2)NC(=O)CN(C)C(=O)[C@H](Cc2ccc(C(F)(F)F)cc2)N(CC2CCCC2)C(=O)CN(C)C(=O)CN(C)C1=O [PP0124] ([NMeL]I[Sar][Sar][X22][Sar][hPhe(3-Cl-4-CF3)]P[Ac5c][NMeGly(cPent)][NMeD]-Morpholide; lactam N-11)	3.5 nM	C (A compound having a KD ratio of 0.1 or more and less than 3 is denoted as C)	C (A compound having a KD ratio of 0.1 or more and less than 3 is denoted as C)
CC[C@H](C)[C@@H]1NC(=O)[C@H](CC(C)C)N(C)C(=O)C[C@@H](C(=O)N2CCOCC2)N(C)C(=O)[C@H](C2CCCC2)N(C)C(=O)C2(CCCC2)NC(=O)[C@@H]2CCCN2C(=O)[C@H](CCc2ccc(C(F)(F)F)c(Cl)c2)NC(=O)CN(C)C(=O)[C@H](Cc2ccc(C(F)(F)F)cc2)N(CCC(C)C)C(=O)CN(C)C(=O)CN(C)C1=O [PP0126] ([NMeL]I[Sar][Sar][X39][Sar][hPhe(3-Cl-4-CF3)]P[Ac5c][NMeGly(cPent)][NMeD]-Morpholide; lactam N-11)	0.43 nM	C (A compound having a KD ratio of 0.1 or more and less than 3 is denoted as C)	C (A compound having a KD ratio of 0.1 or more and less than 3 is denoted as C)

Further lines, with some results ahead:

Kd [1]	Structure (SMILES)	NRAS/KRAS (ratio of KD value for NRAS to KD value for KRAS) [2]	HRAS/KRAS (ratio of KD value for HRAS to KD value for KRAS) [3]
2.1 nM	CC[C@H](C)[C@@H]1NC(=O)[C@H](CC(C)C)N(C)C(=O)C[C@@H](C(=O)N2CCOCC2)N(C)C(=O)[C@H](C2CCCC2)N(C)C(=O)C2(CCCC2)NC(=O)[C@@H]2CCCN2C(=O)[C@H](CCc2ccc(C(F)(F)F)c(Cl)c2)NC(=O)CN(C)C(=O)[C@H](Cc2ccc(C(F)(F)F)cc2)N(CC(C)C)C(=O)CN(C)C(=O)CN(C)C1=O [PP0121] ([NMeL]I[Sar][Sar][X40][Sar][hPhe(3-Cl-4-CF3)]P[Ac5c][NMeGly(cPent)][NMeD]-Morpholide; lactam N-11)	C (A compound having a KD ratio of 0.1 or more and less than 3 is denoted as C)	C (A compound having a KD ratio of 0.1 or more and less than 3 is denoted as C)
0.32 nM	CC[C@H](C)[C@@H]1NC(=O)[C@H](CC(C)C)N(C)C(=O)C[C@@H](C(=O)N2CCOCC2)N(C)C(=O)[C@H](C2CCCC2)N(C)C(=O)C2(CCCC2)NC(=O)[C@@H]2CCCN2C(=O)[C@H](CCc2ccc(C(F)(F)F)c(Cl)c2)NC(=O)CN(C)C(=O)[C@H](Cc2ccc(C(F)(F)F)cc2)N(CC2CC2)C(=O)CN(C)C(=O)CN(C)C1=O [PP0122] ([NMeL]I[Sar][Sar][X27][Sar][hPhe(3-Cl-4-CF3)]P[Ac5c][NMeGly(cPent)][NMeD]-Morpholide; lactam N-11)	C (A compound having a KD ratio of 0.1 or more and less than 3 is denoted as C)	C (A compound having a KD ratio of 0.1 or more and less than 3 is denoted as C)
0.2 nM	C=CCCN1C(=O)CN(C)C(=O)CN(C)C(=O)[C@H]([C@@H](C)CC)NC(=O)[C@H](CC(C)C)N(C)C(=O)C[C@@H](C(=O)N2CCOCC2)N(C)C(=O)[C@H](C2CCCC2)N(C)C(=O)C2(CCCC2)NC(=O)[C@@H]2CCCN2C(=O)[C@H](CCc2ccc(C(F)(F)F)c(Cl)c2)NC(=O)CN(C)C(=O)[C@@H]1Cc1ccc(C(F)(F)F)cc1 [PP0129] ([NMeL]I[Sar][Sar][X23][Sar][hPhe(3-Cl-4-CF3)]P[Ac5c][NMeGly(cPent)][NMeD]-Morpholide; lactam N-11)	B (a compound having 3 or more and less than 10 is denoted as B)	C (A compound having a KD ratio of 0.1 or more and less than 3 is denoted as C)
0.25 nM	C#CCN1C(=O)CN(C)C(=O)CN(C)C(=O)[C@H]([C@@H](C)CC)NC(=O)[C@H](CC(C)C)N(C)C(=O)C[C@@H](C(=O)N2CCOCC2)N(C)C(=O)[C@H](C2CCCC2)N(C)C(=O)C2(CCCC2)NC(=O)[C@@H]2CCCN2C(=O)[C@H](CCc2ccc(C(F)(F)F)c(Cl)c2)NC(=O)CN(C)C(=O)[C@@H]1Cc1ccc(C(F)(F)F)cc1 [PP0130] ([NMeL]I[Sar][Sar][X38][Sar][hPhe(3-Cl-4-CF3)]P[Ac5c][NMeGly(cPent)][NMeD]-Morpholide; lactam N-11)	C (A compound having a KD ratio of 0.1 or more and less than 3 is denoted as C)	C (A compound having a KD ratio of 0.1 or more and less than 3 is denoted as C)

Reference: patent publication US20240158446A1, “CYCLIC COMPOUND HAVING SELECTIVE INHIBITORY ACTION ON KRAS OVER HRAS AND NRAS” (CHUGAI SEIYAKU KABUSHIKI KAISHA, priority 2021, published 2024)
